From US5395947A, “Platinum(II) complex and processes for preparing the same” (Sunkyong Industries, Ltd., priority 1991, dated 1995)

Assays:
[1] = Test for water solubility; assay type: physicochemical; details: water
Excerpt: 3. Test for water solubility
A standard plot of UV absorbance(220 nm) vs. concentration was made; and employed to determine water-solubility.
The mixture was then passed through a 0.45 micron disposable membrane filter before dilution and UV measurement.

[2] = test system: murine leukemia L1210 cells; test: Growth inhibition test on cultured murine leukemia L1210 cells; assay type: cell-based; details: 48 hours, 37° C., Trypan blue viability
Summary of the method: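 Read-out is Trypan blue (0.17%) viability versus compound-free controls. Cells, 1×10^5, were cultured 48 h at 37° C under 5% CO2 in RPMI 1640/10% FCS containing various compound concentrations.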

[3] = test system: murine leukemia L1210; test: Antitumor activity test on murine leukemia L1210 in vivo; design: species or system male BDF1 mice; details: days 1, 5, 9
Summary of the method: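 Male BDF1 mice (6 weeks, 21±3 g; n=7) received 1×10^6 leukemia cells into the peritoneum on day 0, then test compound suspended or dissolved in 0.5% CMC i.p. on days 1, 5, 9. Activity expressed as T/C %, mean survival treated versus 0.5% CMC-injected controls.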

[4] = test system: ICR mice; test: Acute toxicity test; assay type: in vivo; design: Lethality: unit not given here; details: for Lethality: 10080 min
Summary of the method: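 Single i.p. administration to ICR mice (7 weeks old, both sexes, n=6/group); appearance and mortality logged over 7 days, dead animals autopsied for gross pathology.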

O=C1[O][Pt-2]2([NH2+]CC3OC4(CCCC4)OC3C[NH2+]2)[O]C(=O)C12CCC2 [Example 30, cis-cyclobutane-1,1-dicarboxylato[(4R,5R)-4,5-bis(aminomethyl)-1,3-dioxolane-2-spiro-1'-cyclopentane]platinum(II)]
Solubility in water [1]: 1.9 mg/mL
IC50 (concentration required for 50% inhibition of growth) [2]: 0.55 µg/mL
T/C (%) ([3]; 6.2 mg/kg i.p.): 109%
T/C (%) ([3]; 12.5 mg/kg i.p.): 122%
T/C (%) ([3]; 25 mg/kg i.p.): 110%
T/C (%) ([3]; 50 mg/kg i.p.): 148%
T/C (%) ([3]; 100 mg/kg i.p.): 185%
Number of dead mice for 7 days ([4]; female, 94 mg/kg i.p.): 0/6
Number of dead mice, 1st day ([4]; female, 94 mg/kg i.p.): 0/6
Number of dead mice for 7 days ([4]; female, 123 mg/kg i.p.): 0/6
Number of dead mice, 1st day ([4]; female, 123 mg/kg i.p.): 0/6
Number of dead mice for 7 days ([4]; female, 160 mg/kg i.p.): 1/6
Number of dead mice, 1st day ([4]; female, 160 mg/kg i.p.): 0/6
Number of dead mice, 5th day ([4]; female, 160 mg/kg i.p.): 1/6
Lethality ([4]; female, 160 mg/kg i.p.): 16.7
Number of dead mice for 7 days ([4]; female, 208 mg/kg i.p.): 4/6
Number of dead mice, 1st day ([4]; female, 208 mg/kg i.p.): 0/6
Number of dead mice, 3rd day ([4]; female, 208 mg/kg i.p.): 2/6
Number of dead mice, 4th day ([4]; female, 208 mg/kg i.p.): 2/4
Lethality ([4]; female, 208 mg/kg i.p.): 66.7
Number of dead mice for 7 days ([4]; female, 270 mg/kg i.p.): 6/6
Number of dead mice, 1st day ([4]; female, 270 mg/kg i.p.): 0/6
Number of dead mice, 2nd day ([4]; female, 270 mg/kg i.p.): 4/6
Number of dead mice, 3rd day ([4]; female, 270 mg/kg i.p.): 2/2
Lethality ([4]; female, 270 mg/kg i.p.): 100.0
Number of dead mice for 7 days ([4]; male, 94 mg/kg i.p.): 0/6
Number of dead mice, 1st day ([4]; male, 94 mg/kg i.p.): 0/6
Number of dead mice for 7 days ([4]; male, 123 mg/kg i.p.): 0/6
Number of dead mice, 1st day ([4]; male, 123 mg/kg i.p.): 1/6
Number of dead mice for 7 days ([4]; male, 160 mg/kg i.p.): 1/6
Number of dead mice, 1st day ([4]; male, 160 mg/kg i.p.): 0/6
Number of dead mice, 4th day ([4]; male, 160 mg/kg i.p.): 1/6
Lethality ([4]; male, 160 mg/kg i.p.): 16.7
Number of dead mice for 7 days ([4]; male, 208 mg/kg i.p.): 5/6
Number of dead mice, 1st day ([4]; male, 208 mg/kg i.p.): 1/6
Number of dead mice, 2nd day ([4]; male, 208 mg/kg i.p.): 1/6
Number of dead mice, 3rd day ([4]; male, 208 mg/kg i.p.): 3/5
Lethality ([4]; male, 208 mg/kg i.p.): 83.3
Number of dead mice for 7 days ([4]; male, 270 mg/kg i.p.): 6/6
Number of dead mice, 1st day ([4]; male, 270 mg/kg i.p.): 0/6
Number of dead mice, 2nd day ([4]; male, 270 mg/kg i.p.): 2/6
Number of dead mice, 3rd day ([4]; male, 270 mg/kg i.p.): 4/4
Lethality ([4]; male, 270 mg/kg i.p.): 100.0

CCC1(CC)OC2C[NH2+][Pt-2]3([NH2+]CC2O1)[O]CC(=O)[O]3 [Example 8, (glycolato-O,O')[(4R,5R)-4,5-bis(aminomethyl)-2,2-diethyl-1,3-dioxolane]platinum(II)]
Solubility in water [1]: > 30 mg/mL
IC50 (concentration required for 50% inhibition of growth) [2]: 0.06 µg/mL
T/C (%) ([3]; 3.1 mg/kg i.p.): 154%
T/C (%) ([3]; 6.2 mg/kg i.p.): 198%
T/C (%) ([3]; 12.5 mg/kg i.p.): 245%
T/C (%) ([3]; 25 mg/kg i.p.): toxic
T/C (%) ([3]; 50 mg/kg i.p.): toxic
Number of dead mice for 7 days ([4]; female, 41.3 mg/kg i.p.): 0/6
Number of dead mice, 1st day ([4]; female, 41.3 mg/kg i.p.): 0/6
Lethality ([4]; female, 41.3 mg/kg i.p.): 0.0
Number of dead mice for 7 days ([4]; female, 54.9 mg/kg i.p.): 3/6
Number of dead mice, 1st day ([4]; female, 54.9 mg/kg i.p.): 0/6
Number of dead mice, 3rd day ([4]; female, 54.9 mg/kg i.p.): 1/6
Number of dead mice, 4th day ([4]; female, 54.9 mg/kg i.p.): 2/5
Lethality ([4]; female, 54.9 mg/kg i.p.): 50.0
Number of dead mice for 7 days ([4]; female, 71.4 mg/kg i.p.): 5/6
Number of dead mice, 1st day ([4]; female, 71.4 mg/kg i.p.): 0/6
Number of dead mice, 4th day ([4]; female, 71.4 mg/kg i.p.): 2/6
Number of dead mice, 5th day ([4]; female, 71.4 mg/kg i.p.): 3/4
Lethality ([4]; female, 71.4 mg/kg i.p.): 83.7
Number of dead mice for 7 days ([4]; female, 91.8 mg/kg i.p.): 6/6
Number of dead mice, 1st day ([4]; female, 91.8 mg/kg i.p.): 0/6
Number of dead mice, 2nd day ([4]; female, 91.8 mg/kg i.p.): 1/6
Number of dead mice, 3rd day ([4]; female, 91.8 mg/kg i.p.): 3/5
Number of dead mice, 4th day ([4]; female, 91.8 mg/kg i.p.): 2/2
Lethality ([4]; female, 91.8 mg/kg i.p.): 100.0
Number of dead mice for 7 days ([4]; male, 41.3 mg/kg i.p.): 0/6
Number of dead mice, 1st day ([4]; male, 41.3 mg/kg i.p.): 0/6
Lethality ([4]; male, 41.3 mg/kg i.p.): 0.0
Number of dead mice for 7 days ([4]; male, 54.9 mg/kg i.p.): 4/6
Number of dead mice, 1st day ([4]; male, 54.9 mg/kg i.p.): 0/6
Number of dead mice, 3rd day ([4]; male, 54.9 mg/kg i.p.): 2/6
Number of dead mice, 4th day ([4]; male, 54.9 mg/kg i.p.): 2/4
Lethality ([4]; male, 54.9 mg/kg i.p.): 66.7
Number of dead mice for 7 days ([4]; male, 71.4 mg/kg i.p.): 5/6
Number of dead mice, 1st day ([4]; male, 71.4 mg/kg i.p.): 0/6
Number of dead mice, 3rd day ([4]; male, 71.4 mg/kg i.p.): 1/6
Number of dead mice, 4th day ([4]; male, 71.4 mg/kg i.p.): 4/5
Lethality ([4]; male, 71.4 mg/kg i.p.): 83.3
Number of dead mice for 7 days ([4]; male, 91.8 mg/kg i.p.): 6/6
Number of dead mice, 1st day ([4]; male, 91.8 mg/kg i.p.): 0/6
Number of dead mice, 2nd day ([4]; male, 91.8 mg/kg i.p.): 2/6
Number of dead mice, 3rd day ([4]; male, 91.8 mg/kg i.p.): 4/4
Lethality ([4]; male, 91.8 mg/kg i.p.): 100.0
